According to the kinase profiling compilation of Christmann-Franck et al. (2016):

Assays:
Assay in all cases: KINOMEscan competition binding
Details in all cases: compound 0.5 µM
DDR1 (human) = DDR1 (human) (UniProt Q08345)
MAPK3 (human) = MAPK3 (human) (UniProt P27361)
IRAK3 (human) = IRAK3 (human) (UniProt Q9Y616)
NEK3 (human) = NEK3 (human) (UniProt P51956)
NUAK2 (human) = NUAK2 (human) (UniProt Q9H093)
[1] = system: BRAF (human), P15056 [V600E]
MET (human) = MET (human) (UniProt P08581)
EPHA8 (human) = EPHA8 (human) (UniProt P29322)
BMPR2 (human) = BMPR2 (human) (UniProt Q13873)
SIK3 (human) = SIK3 (human) (UniProt Q9Y2K2)
MYLK3 (human) = MYLK3 (human) (UniProt Q32MK0)
MAPK14 (human) = MAPK14 (human) (UniProt Q16539)
LRRK2 (human) = LRRK2 (human) (UniProt Q5S007)
STK32C (human) = STK32C (human) (UniProt Q86UX6)
BMPR1A (human) = BMPR1A (human) (UniProt P36894)
CSK (human) = CSK (human) (UniProt P41240)
CASK (human) = CASK (human) (UniProt O14936)
FGFR4 (human) = FGFR4 (human) (UniProt P22455)
MST1R (human) = MST1R (human) (UniProt Q04912)
PRKAA2 (human) = PRKAA2 (human) (UniProt P54646)
PRPF4B (human) = PRPF4B (human) (UniProt Q13523)
MKNK2 (human) = MKNK2 (human) (UniProt Q9HBH9)
STK35 (human) = STK35 (human) (UniProt Q8TDR2)
SIK1 (human) = SIK1 (human) (UniProt P57059)
WEE1 (human) = WEE1 (human) (UniProt P30291)
EPHA1 (human) = EPHA1 (human) (UniProt P21709)
LYN (human) = LYN (human) (UniProt P07948)
ICK (human) = ICK (human) (UniProt Q9UPZ9)
MAPK6 (human) = MAPK6 (human) (UniProt Q16659)
MARK3 (human) = MARK3 (human) (UniProt P27448)
STK24 (human) = STK24 (human) (UniProt Q9Y6E0)
PI4KB (human) = PI4KB (human) (UniProt Q9UBF8)
MAP2K7 (human) = MAP2K7 (human) (UniProt O14733)
MERTK (human) = MERTK (human) (UniProt Q12866)
FER (human) = FER (human) (UniProt P16591)
SNRK (human) = SNRK (human) (UniProt Q9NRH2)
NEK6 (human) = NEK6 (human) (UniProt Q9HC98)
TGFBR2 (human) = TGFBR2 (human) (UniProt P37173)
PRKCH (human) = PRKCH (human) (UniProt P24723)
PTK2 (human) = PTK2 (human) (UniProt Q05397)
CDK15 (human) = CDK15 (human) (UniProt Q96Q40)
RPS6KA4 KD1 (human) = RPS6KA4 KD1 (human) (UniProt O75676)

Chain of MYLK3 (human) (Q32MK0 whole entry, looked up): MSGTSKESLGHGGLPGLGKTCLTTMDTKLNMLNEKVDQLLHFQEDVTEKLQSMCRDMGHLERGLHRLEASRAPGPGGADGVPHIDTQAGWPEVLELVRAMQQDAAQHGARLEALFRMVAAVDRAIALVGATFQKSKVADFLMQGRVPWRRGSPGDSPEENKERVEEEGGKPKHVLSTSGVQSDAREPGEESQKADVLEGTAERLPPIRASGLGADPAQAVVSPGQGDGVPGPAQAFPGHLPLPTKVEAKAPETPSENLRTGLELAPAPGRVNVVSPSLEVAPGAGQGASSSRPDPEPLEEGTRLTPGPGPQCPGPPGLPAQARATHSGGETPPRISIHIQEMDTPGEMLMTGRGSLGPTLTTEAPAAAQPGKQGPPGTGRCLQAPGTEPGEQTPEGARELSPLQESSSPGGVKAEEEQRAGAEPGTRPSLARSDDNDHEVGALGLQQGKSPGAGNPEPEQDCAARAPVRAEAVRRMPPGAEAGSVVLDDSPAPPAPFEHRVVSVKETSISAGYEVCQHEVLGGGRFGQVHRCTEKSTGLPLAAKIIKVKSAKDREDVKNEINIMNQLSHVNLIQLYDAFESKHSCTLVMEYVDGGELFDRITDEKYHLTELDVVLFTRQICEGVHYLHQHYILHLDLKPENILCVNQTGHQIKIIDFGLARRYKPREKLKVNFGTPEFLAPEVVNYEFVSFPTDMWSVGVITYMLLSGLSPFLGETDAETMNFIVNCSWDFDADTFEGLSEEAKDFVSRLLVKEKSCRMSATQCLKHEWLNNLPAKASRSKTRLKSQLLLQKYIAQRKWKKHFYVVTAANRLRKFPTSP
Chain of LRRK2 (human) (Q5S007 whole entry, looked up): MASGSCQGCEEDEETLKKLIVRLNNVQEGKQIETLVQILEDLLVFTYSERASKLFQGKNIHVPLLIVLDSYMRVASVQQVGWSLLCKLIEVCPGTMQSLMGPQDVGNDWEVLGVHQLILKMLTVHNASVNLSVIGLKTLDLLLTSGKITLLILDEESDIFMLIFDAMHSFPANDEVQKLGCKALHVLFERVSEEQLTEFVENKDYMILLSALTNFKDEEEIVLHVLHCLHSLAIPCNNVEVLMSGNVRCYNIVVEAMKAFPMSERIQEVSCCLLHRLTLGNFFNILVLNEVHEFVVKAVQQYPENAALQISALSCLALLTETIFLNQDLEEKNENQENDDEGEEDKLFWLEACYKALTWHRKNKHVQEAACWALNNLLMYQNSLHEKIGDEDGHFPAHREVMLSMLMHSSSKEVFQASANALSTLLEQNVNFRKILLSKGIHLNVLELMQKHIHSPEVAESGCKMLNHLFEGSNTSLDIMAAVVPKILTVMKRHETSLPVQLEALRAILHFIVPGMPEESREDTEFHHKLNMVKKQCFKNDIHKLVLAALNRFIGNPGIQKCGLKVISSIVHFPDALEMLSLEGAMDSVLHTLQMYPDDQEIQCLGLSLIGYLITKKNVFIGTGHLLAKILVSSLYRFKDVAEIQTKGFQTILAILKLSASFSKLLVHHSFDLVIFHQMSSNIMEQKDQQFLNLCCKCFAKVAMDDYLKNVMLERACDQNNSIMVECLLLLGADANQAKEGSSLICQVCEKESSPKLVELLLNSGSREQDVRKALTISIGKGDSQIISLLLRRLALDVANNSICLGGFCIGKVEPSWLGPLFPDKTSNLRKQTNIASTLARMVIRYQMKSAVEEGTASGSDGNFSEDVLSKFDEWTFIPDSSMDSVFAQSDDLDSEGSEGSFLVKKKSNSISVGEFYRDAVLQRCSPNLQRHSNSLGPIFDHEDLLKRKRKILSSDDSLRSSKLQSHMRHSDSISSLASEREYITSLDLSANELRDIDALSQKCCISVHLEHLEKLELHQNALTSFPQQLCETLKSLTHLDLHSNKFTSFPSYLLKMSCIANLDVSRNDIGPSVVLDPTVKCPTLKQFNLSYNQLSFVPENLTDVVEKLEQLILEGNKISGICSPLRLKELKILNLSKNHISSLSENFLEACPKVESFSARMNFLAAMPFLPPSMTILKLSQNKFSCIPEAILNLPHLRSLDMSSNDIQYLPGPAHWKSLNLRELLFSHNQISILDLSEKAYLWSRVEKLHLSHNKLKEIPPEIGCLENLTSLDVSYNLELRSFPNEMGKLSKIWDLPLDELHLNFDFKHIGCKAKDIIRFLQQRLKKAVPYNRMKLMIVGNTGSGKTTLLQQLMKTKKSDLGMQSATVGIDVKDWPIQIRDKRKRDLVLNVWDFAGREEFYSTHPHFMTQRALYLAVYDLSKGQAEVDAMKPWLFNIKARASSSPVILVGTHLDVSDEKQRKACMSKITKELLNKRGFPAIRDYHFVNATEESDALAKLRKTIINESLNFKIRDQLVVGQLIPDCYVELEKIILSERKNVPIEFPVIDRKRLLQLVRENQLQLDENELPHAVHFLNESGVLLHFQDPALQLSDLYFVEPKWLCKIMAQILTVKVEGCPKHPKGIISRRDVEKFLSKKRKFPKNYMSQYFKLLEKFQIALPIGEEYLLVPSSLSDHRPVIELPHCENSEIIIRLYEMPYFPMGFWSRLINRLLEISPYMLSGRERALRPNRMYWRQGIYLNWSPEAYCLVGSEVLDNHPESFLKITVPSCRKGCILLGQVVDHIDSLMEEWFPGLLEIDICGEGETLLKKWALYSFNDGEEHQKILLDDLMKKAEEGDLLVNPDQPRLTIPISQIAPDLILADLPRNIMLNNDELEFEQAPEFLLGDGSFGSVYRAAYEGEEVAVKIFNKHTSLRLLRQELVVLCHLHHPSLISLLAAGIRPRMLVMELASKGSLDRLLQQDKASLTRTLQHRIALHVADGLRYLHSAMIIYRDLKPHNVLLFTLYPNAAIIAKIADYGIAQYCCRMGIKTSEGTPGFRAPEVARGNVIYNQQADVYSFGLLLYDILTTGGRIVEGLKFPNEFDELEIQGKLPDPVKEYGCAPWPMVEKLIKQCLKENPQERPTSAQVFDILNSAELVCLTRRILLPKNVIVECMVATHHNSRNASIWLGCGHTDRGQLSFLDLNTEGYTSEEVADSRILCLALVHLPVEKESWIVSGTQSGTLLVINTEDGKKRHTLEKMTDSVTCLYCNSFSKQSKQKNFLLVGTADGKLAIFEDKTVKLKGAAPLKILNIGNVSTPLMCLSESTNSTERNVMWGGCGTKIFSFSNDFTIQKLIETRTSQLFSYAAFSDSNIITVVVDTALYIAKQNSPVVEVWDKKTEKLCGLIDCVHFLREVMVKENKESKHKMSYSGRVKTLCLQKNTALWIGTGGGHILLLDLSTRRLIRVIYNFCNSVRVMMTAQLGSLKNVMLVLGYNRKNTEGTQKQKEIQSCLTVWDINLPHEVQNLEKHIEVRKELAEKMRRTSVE
Chain of IRAK3 (human) (Q9Y616 whole entry, looked up): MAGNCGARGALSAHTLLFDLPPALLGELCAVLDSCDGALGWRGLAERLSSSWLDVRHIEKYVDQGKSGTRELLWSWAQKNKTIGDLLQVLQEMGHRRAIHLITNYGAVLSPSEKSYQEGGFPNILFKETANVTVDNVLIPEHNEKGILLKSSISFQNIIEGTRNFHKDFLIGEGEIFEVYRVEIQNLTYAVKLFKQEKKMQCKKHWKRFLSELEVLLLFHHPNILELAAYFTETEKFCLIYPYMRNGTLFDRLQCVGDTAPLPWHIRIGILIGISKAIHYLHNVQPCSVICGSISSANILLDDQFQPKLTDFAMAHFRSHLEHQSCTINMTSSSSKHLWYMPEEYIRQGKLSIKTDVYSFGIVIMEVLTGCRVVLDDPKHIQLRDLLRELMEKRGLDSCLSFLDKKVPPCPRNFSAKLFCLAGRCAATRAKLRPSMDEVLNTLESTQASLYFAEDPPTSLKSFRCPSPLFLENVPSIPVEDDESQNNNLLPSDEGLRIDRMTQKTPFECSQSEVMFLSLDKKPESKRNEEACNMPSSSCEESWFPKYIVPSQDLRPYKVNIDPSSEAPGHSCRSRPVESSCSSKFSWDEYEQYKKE
Chain of MARK3 (human) (P27448 whole entry, looked up): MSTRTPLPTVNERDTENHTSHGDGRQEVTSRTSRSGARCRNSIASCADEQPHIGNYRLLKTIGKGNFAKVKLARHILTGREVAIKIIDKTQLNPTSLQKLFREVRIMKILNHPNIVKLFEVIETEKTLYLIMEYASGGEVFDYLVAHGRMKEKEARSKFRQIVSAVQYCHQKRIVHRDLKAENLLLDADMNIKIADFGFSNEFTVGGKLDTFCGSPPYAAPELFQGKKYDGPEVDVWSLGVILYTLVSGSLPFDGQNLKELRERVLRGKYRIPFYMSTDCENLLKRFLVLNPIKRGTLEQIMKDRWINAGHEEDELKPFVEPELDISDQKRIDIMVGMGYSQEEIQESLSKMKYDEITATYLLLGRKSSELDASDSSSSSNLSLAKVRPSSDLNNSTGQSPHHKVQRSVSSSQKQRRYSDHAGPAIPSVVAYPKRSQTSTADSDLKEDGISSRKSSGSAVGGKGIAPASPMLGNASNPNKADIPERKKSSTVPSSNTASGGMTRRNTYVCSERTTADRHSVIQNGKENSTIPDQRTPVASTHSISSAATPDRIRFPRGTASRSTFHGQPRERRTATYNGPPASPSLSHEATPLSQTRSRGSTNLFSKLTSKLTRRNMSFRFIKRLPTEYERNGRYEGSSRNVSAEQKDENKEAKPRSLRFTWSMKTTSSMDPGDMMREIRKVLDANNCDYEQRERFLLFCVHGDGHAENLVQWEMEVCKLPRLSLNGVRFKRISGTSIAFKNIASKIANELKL
Chain of CDK15 (human) (Q96Q40 whole entry, looked up): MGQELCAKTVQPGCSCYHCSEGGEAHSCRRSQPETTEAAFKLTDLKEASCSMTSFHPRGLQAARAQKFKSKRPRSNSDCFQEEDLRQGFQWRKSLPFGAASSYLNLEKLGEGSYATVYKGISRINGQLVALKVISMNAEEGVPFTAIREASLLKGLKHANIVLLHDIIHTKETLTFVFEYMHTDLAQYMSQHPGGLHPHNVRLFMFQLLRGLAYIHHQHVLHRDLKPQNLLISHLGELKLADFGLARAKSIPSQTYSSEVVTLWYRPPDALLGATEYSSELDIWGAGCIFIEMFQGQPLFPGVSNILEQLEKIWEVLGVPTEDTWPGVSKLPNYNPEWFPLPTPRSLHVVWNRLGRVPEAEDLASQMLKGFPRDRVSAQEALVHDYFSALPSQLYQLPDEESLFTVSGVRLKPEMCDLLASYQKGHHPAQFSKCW

## Cn1c2ccccc2c2c3c(c4c5ccccc5n(CCC#N)c4c21)CNC3=O
DDR1 (human)
  kinase still bound, per cent of control: 100%
MAPK3 (human)
  kinase still bound, per cent of control: 96%
IRAK3 (human)
  kinase still bound, per cent of control: 12%
NEK3 (human)
  kinase still bound, per cent of control: 100%
NUAK2 (human)
  kinase still bound, per cent of control: 4.4%
[1]
  kinase still bound, per cent of control: 92%
MET (human)
  kinase still bound, per cent of control: 88%
EPHA8 (human)
  kinase still bound, per cent of control: 90%
BMPR2 (human)
  kinase still bound, per cent of control: 100%
SIK3 (human)
  kinase still bound, per cent of control: 100%
MYLK3 (human)
  kinase still bound, per cent of control: 100%
MAPK14 (human)
  kinase still bound, per cent of control: 95%
LRRK2 (human)
  kinase still bound, per cent of control: 19%
STK32C (human)
  kinase still bound, per cent of control: 100%
BMPR1A (human)
  kinase still bound, per cent of control: 73%
CSK (human)
  kinase still bound, per cent of control: 100%
CASK (human)
  kinase still bound, per cent of control: 72%
FGFR4 (human)
  kinase still bound, per cent of control: 100%
MST1R (human)
  kinase still bound, per cent of control: 100%
PRKAA2 (human)
  kinase still bound, per cent of control: 73%
PRPF4B (human)
  kinase still bound, per cent of control: 12%
MKNK2 (human)
  kinase still bound, per cent of control: 11%
STK35 (human)
  kinase still bound, per cent of control: 73%
SIK1 (human)
  kinase still bound, per cent of control: 83%
WEE1 (human)
  kinase still bound, per cent of control: 100%
EPHA1 (human)
  kinase still bound, per cent of control: 97%
LYN (human)
  kinase still bound, per cent of control: 100%
ICK (human)
  kinase still bound, per cent of control: 20%
MAPK6 (human)
  kinase still bound, per cent of control: 74%
MARK3 (human)
  kinase still bound, per cent of control: 16%
STK24 (human)
  kinase still bound, per cent of control: 92%
PI4KB (human)
  kinase still bound, per cent of control: 62%
MAP2K7 (human)
  kinase still bound, per cent of control: 79%
MERTK (human)
  kinase still bound, per cent of control: 89%
FER (human)
  kinase still bound, per cent of control: 3.2%
SNRK (human)
  kinase still bound, per cent of control: 69%
NEK6 (human)
  kinase still bound, per cent of control: 100%
TGFBR2 (human)
  kinase still bound, per cent of control: 100%
PRKCH (human)
  kinase still bound, per cent of control: 18%
PTK2 (human)
  kinase still bound, per cent of control: 73%
CDK15 (human)
  kinase still bound, per cent of control: 100%
RPS6KA4 KD1 (human)
  kinase still bound, per cent of control: 46%
